Source: PMC6635827 (Drug Design, Development and Therapy, 2019)
Like-named read-outs stand apart in the source and are kept apart here. Values belong to the compound of their own block, whether it stands above or below them.

Tests used:
tyrosinase = experiment: Tyrosinase zymography; format: biochemical, mushroom; details: L-DOPA staining, compared to untreated control
mushroom tyrosinase [1] = molecular target: T1, mushroom tyrosinase (Agaricus bisporus, UniProt C7FF04); experiment: Mushroom tyrosinase inhibition assay; format: biochemical; details: for inhibition at 30 µM: read-out: percent inhibition
mushroom tyrosinase [2] = molecular target: T1, mushroom tyrosinase; details: cited from earlier work

T1 sequence (C7FF04 1-392): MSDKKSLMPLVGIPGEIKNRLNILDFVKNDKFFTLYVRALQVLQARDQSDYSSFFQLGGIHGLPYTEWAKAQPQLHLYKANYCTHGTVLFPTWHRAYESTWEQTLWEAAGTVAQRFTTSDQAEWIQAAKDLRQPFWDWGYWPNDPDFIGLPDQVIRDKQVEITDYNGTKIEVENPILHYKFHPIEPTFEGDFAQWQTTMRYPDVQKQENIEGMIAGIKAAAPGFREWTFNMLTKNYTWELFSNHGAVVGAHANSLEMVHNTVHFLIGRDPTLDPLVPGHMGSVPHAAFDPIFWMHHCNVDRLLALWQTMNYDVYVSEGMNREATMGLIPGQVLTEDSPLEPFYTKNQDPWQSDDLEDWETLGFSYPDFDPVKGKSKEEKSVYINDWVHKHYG

Compound: COc1ccc(N=Nc2c(N)nc(N)nc2Cl)cc1 [Compound 1e, 6-chloro-5-((4-methoxyphenyl)diazenyl) pyrimidine-2,4-diamine]
inhibition at 30 µM (mushroom tyrosinase [1]): 55.1%

Compound: Nc1nc(N)c(N=Nc2ccccc2[N+](=O)[O-])c(Cl)n1 [Compound 1a, 6-chloro-5-((2-nitrophenyl)diazenyl) pyrimidine-2,4-diamine]
band intensity on zymogram (inhibitory effect on tyrosinase activity) (tyrosinase): lightest bands

Compound: Cc1cc(=O)[nH]c(=S)[nH]1 [methylthiouracil]
IC50 (mushroom tyrosinase [2]): 142 µM
Inhibition type (mushroom tyrosinase [2]): noncompetitive inhibitors

Compound: O=c1cc[nH]c(=S)[nH]1 [thiouracil]
IC50 (mushroom tyrosinase [2]): 128 µM
Inhibition type (mushroom tyrosinase [2]): noncompetitive inhibitors

The next lines start with the values.

band intensity on zymogram (inhibitory effect on tyrosinase activity) (tyrosinase): minimal inhibitory effect
Compound: COc1ccc(N=Nc2c(N)nc(N)nc2N)cc1 [Compound 2d, 5-((4-methoxyphenyl)diazenyl) pyrimidine-2,4,6-triamine]

inhibition at 30 µM (mushroom tyrosinase [1]): 23.7%
Compound: Nc1nc(N)c(N=Nc2ccc([N+](=O)[O-])cc2)c(Cl)n1 [Compound 1b, 6-chloro-5-((4-nitrophenyl)diazenyl) pyrimidine-2,4-diamine]

IC50 (mushroom tyrosinase [1]): 24.5 µM
band intensity on zymogram (inhibitory effect on tyrosinase activity) (tyrosinase): lightest bands
Compound: CC(=O)Nc1ccc(N=Nc2c(N)nc(N)nc2Cl)cc1 [Compound 1d, N-(4-((2,4-diamino-6-chloropyrimidin-5-yl)diazenyl)phenyl) acetamide]
